According to patent US20180237441A1, “Chemical Compounds” (GlaxoSmithKline Intellectual Property (No.2) Limited, priority 2015, published 2018):
pIC50: −log10 of the molar value.

molecular target: T1, PERK (Homo sapiens, UniProt Q9NZJ5); assay: PERK enzyme assay (HTRF); assay type: biochemical; settings: 500 μM ATP; at least one experimental run; read-out: PERK Enzyme (500 μM ATP) IC50
T1 sequence (Q9NZJ5 30-1116): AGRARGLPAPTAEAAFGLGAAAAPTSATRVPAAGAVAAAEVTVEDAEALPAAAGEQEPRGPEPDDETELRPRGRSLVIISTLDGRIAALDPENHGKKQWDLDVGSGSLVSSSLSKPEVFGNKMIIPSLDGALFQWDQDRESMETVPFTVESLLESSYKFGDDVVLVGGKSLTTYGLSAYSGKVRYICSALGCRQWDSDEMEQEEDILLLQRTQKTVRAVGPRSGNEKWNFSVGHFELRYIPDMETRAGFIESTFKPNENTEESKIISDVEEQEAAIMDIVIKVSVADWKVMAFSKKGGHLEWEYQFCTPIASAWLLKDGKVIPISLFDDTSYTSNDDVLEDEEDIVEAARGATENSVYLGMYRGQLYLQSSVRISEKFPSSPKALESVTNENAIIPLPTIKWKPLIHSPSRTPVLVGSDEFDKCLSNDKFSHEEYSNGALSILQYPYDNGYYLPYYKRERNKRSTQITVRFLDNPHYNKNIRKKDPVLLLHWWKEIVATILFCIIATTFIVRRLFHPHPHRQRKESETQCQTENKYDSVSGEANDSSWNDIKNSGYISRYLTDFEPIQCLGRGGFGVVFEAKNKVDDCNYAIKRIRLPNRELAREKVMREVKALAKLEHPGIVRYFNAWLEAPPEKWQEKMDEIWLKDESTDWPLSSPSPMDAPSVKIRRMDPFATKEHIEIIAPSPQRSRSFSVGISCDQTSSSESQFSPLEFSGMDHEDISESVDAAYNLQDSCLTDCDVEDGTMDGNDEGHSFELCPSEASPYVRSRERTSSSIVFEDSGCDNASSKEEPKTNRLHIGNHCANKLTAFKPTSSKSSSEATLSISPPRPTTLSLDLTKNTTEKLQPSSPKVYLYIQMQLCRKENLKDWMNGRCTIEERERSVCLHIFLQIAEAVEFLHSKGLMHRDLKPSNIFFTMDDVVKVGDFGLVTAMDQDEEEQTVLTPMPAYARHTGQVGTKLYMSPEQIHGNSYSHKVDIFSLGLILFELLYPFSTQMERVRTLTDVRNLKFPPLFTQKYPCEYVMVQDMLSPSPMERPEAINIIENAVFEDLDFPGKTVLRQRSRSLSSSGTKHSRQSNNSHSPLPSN
Procedure: Compounds of the invention were assayed for PERK enzyme inhibitory activity with modifications to previously reported conditions (Axten et al. J. Med. Chem., 2012, 55, 7193-7207). Briefly, various concentrations of compounds (maximum 1% DMSO) were dispensed into 384-well plates containing GST-PERK enzyme. After 30-60 minutes of compound pre-incubation, ATP and biotin-eIF2α were added and after 60 minutes the reaction was quenched. After 2 hrs, a fluorescence plate reader was used to measure inhibition and IC50s were calculated.
Enzyme Assay Protocol for PKR-Like Endoplasmic Reticulum Kinase (PERK)—HTRF —% Inhibition
Assay Buffer contains HEPES (pH7.5) 10 mM, CHAPS 2 mM, MgCl2 5 mM and DTT 1 mM in water
Detection Buffer contains HEPES (pH7.5) 10 mM and CHAPS 2 mM in water Assay Plate Preparation:
1. Enzyme Preparation: • 4× Enzyme solution was prepared immediately prior to adding to compound plates. • 3 nM of GST-PERK in Assay buffer. Final [PERK] in 10 μl assay volume=0.75 nM
2. Substrate Preparation: • 4× Substrate solution was prepared immediately prior to adding to compound plates. • 4× Substrate solution in assay buffer 2000 μM ATP and 160 nM Biotin-eIF2α • Final [ATP] in 10 μl assay volume=500 μM • Final [biotin-eIF2a] in 10 μl assay volume=40 nM.
3. Quench/Detection Solution: • 16 nM eIF2 Phospho-Antibody • 16 nM Eu anti-Rabbit IgG • 160 nM Streptavidin-APC • 60 mM EDTA • Final concentration in 10 μL assay volume: 4 nM eIF2 Phospho-Antibody, 4 nM Eu anti-Rabbit IgG 40 nM Streptavidin-APC
The activity of compounds in the PERK enzyme assay was determined at PERK Enzyme (500 μM ATP) IC50 (nM).

pIC50	Compound
7.11	CCN1C(=O)N(c2ccc(-c3cn(C)c4ncnc(N)c34)c(F)c2)CC1c1cc(F)ccc1F (single isomer, unassigned) [Example 2, 1-(4-(4-amino-7-methyl-7H-pyrrolo[2,3-d]pyrimidin-5-yl)-3-fluorophenyl)-4-(2,5-difluorophenyl)-3-ethylimidazolidin-2-one]
7.86	CN1C(=O)N(c2ccc(-c3cn(C)c4ncnc(N)c34)c(F)c2)CC1c1ccc(F)cc1F (single isomer, unassigned) [Example 46, 1-(4-(4-amino-7-methyl-7H-pyrrolo[2,3-d]pyrimidin-5-yl)-3-fluorophenyl)-4-(2,4-difluorophenyl)-3-methylimidazolidin-2-one]

same assay, conditions: PERK Enzyme (500 μM ATP) IC50; at least one experimental run; read-out: PERK Activity

Compound	pIC50
1-(4-(4-amino-2,7-dimethyl-7H- pyrrolo[2,3-d]pyrimidin-5-yl)-3- fluorophenyl)-4-(2,4-difluorophenyl)- 3-trifluoroethyl)imidazolidin-2-one [Example 83]	6.00 to 7.00
Cc1nc(N)c2c(-c3ccc(N4CC(c5ccc(F)cc5F)N(C)C4=O)cc3F)cn(C3CC3)c2n1 (single isomer, unassigned) [Example 9, 1-(4-(4-amino-7-cyclopropyl-2-methyl-7H-pyrrolo[2,3-d]pyrimidin-5-yl)-3-fluorophenyl)-4-(2,4-difluorophenyl)-3-methylimidazolidin-2-one]	< 6.00
Cc1nc(N)c2c(-c3ccc(N4CC(c5ccc(F)cc5F)N(C)C4=O)cc3F)c(C)n(C)c2n1 (single isomer, unassigned) [Example 10, 1-(4-(4-amino-2,6,7-trimethyl-7H-pyrrolo[2,3-d]pyrimidin-5-yl)-3-fluorophenyl)-4-(2,4-difluorophenyl)-3-methylimidazolidin-2-one]	< 6.00
Cc1nc(N)c2c(-c3ccc(N4CC(c5ccc(F)cc5F)N(C)C4=O)cc3F)nn(C)c2n1 (single isomer, unassigned) [Example 13, 1-(4-(4-amino-1,6-dimethyl-1H-pyrazolo[3,4-d]pyrimidin-3-yl)-3-fluorophenyl)-4-(2,4-difluorophenyl)-3-methylimidazolidin-2-one]	< 6.00
Cc1nc(N)c2c(-c3ccc(N4CC(c5cc(F)ccc5F)N(C)C4=O)cc3F)cn(C)c2n1 (single isomer, unassigned) [Example 38, 1-(4-(4-amino-2,7-dimethyl-7H-pyrrolo[2,3-d]pyrimidin-5-yl)-3-fluorophenyl)-4-(2,5-difluorophenyl)-3-methylimidazolidin-2-one]	< 6.00
CCN1C(=O)N(c2ccc(-c3cn(C)c4nc(C)nc(N)c34)c(F)c2)CC1c1cc(F)ccc1F (single isomer, unassigned) [Example 45, 1-(4-(4-amino-2,7-dimethyl-7H-pyrrolo[2,3-d]pyrimidin-5-yl)-3-fluorophenyl)-4-(2,5-difluorophenyl)-3-ethylimidazolidin-2-one]	< 6.00
CN1C(=O)N(c2ccc(-c3cn(C)c4ncnc(N)c34)c(F)c2)CC1c1ccc(F)cc1F (single isomer, unassigned) [Example 47, 1-(4-(4-amino-7-methyl-7H-pyrrolo[2,3-d]pyrimidin-5-yl)-3-fluorophenyl)-4-(2,4-difluorophenyl)-3-methylimidazolidin-2-one]	< 6.00
CN1C(=O)N(c2ccc(-c3cn(C)c4ncnc(N)c34)c(F)c2)CC1c1cc(F)cc(Cl)c1 (single isomer, unassigned) [Example 52, 1-(4-(4-amino-7-methyl-7H-pyrrolo[2,3-d]pyrimidin-5-yl)-3-fluorophenyl)-4-(3-chloro-5-fluorophenyl)-3-methylimidazolidin-2-one]	6.00 to 7.00

Results, then the compound that gave them:

pIC50	Compound
6.00 to 7.00	CCN1C(=O)N(c2ccc(-c3cn(C)c4ncnc(N)c34)c(F)c2)CC1c1cc(F)ccc1F (racemic) [Example 1, 1-(4-(4-amino-7-methyl-7H-pyrrolo[2,3-d]pyrimidin-5-yl)-3-fluorophenyl)-4-(2,5-difluorophenyl)-3-ethylimidazolidin-2-one]
> 7.00	CN1C(=O)N(c2ccc(-c3cn(C4CC4)c4ncnc(N)c34)c(F)c2)CC1c1cc(F)cc(F)c1 (racemic) [Example 175, 1-(4-(4-amino-7-cyclopropyl-7H-pvrrolo[2,3-d]pyrimidin-5-yl)-3-fluorophenyl)-4-(3,5-difluorophenyl)-3-methylimidazolidin-2-one]
> 7.00	CCN1C(=O)N(c2ccc(-c3cn(C)c4ncnc(N)c34)c(F)c2)CC1c1cc(F)ccc1F (single isomer, unassigned) [Example 2, 1-(4-(4-amino-7-methyl-7H-pyrrolo[2,3-d]pyrimidin-5-yl)-3-fluorophenyl)-4-(2,5-difluorophenyl)-3-ethylimidazolidin-2-one]
6.00 to 7.00	CCN1C(=O)N(c2ccc(-c3cn(C)c4ncnc(N)c34)c(F)c2)CC1c1cc(F)ccc1F (single isomer, unassigned) [Example 3, 1-(4-(4-amino-7-methyl-7H-pyrrolo[2,3-d]pyrimidin-5-yl)-3-fluorophenyl)-4-(2,5-difluorophenyl)-3-ethylimidazolidin-2-one]
> 7.00	Cc1nc(N)c2c(-c3ccc(N4CC(c5ccc(F)cc5F)N(C)C4=O)cc3F)cn(C3CC3)c2n1 (single isomer, unassigned) [Example 8, 1-(4-(4-amino-7-cyclopropyl-2-methyl-7H-pyrrolo[2,3-d]pyrimidin-5-yl)-3-fluorophenyl)-4-(2,4-difluorophenyl)-3-methylimidazolidin-2-one]
> 7.00	Cc1nc(N)c2c(-c3ccc(N4CC(c5ccc(F)cc5F)N(C)C4=O)cc3F)c(C)n(C)c2n1 (single isomer, unassigned) [Example 11, 1-(4-(4-amino-2,6,7-trimethyl-7H-pyrrolo[2,3-d]pyrimidin-5-yl)-3-fluorophenyl)-4-(2,4-difluorophenyl)-3-methylimidazolidin-2-one]
> 7.00	Cc1nc(N)c2c(-c3ccc(N4CC(c5ccc(F)cc5F)N(C)C4=O)cc3F)nn(C)c2n1 (single isomer, unassigned) [Example 12, 1-(4-(4-amino-1,6-dimethyl-1H-pyrazolo[3,4-d]pyrimidin-3-yl)-3-fluorophenyl)-4-(2,4-difluorophenyl)-3-methylimidazolidin-2-one]
6.00 to 7.00	Cc1nc(N)c2c(-c3ccc(N4CC(c5cc(F)ccc5F)N(C)C4=O)cc3F)cn(C)c2n1 (single isomer, unassigned) [Example 37, 1-(4-(4-amino-2,7-dimethyl-7H-pyrrolo[2,3-d]pyrimidin-5-yl)-3-fluorophenyl)-4-(2,5-difluorophenyl)-3-methylimidazolidin-2-one]
> 7.00	CCN1C(=O)N(c2ccc(-c3cn(C)c4nc(C)nc(N)c34)c(F)c2)CC1c1cc(F)ccc1F (single isomer, unassigned) [Example 44, 1-(4-(4-amino-2,7-dimethyl-7H-pyrrolo[2,3-d]pyrimidin-5-yl)-3-fluorophenyl)-4-(2,5-difluorophenyl)-3-ethylimidazolidin-2-one]
> 7.00	CN1C(=O)N(c2ccc(-c3cn(C)c4ncnc(N)c34)c(F)c2)CC1c1ccc(F)cc1F (single isomer, unassigned) [Example 46, 1-(4-(4-amino-7-methyl-7H-pyrrolo[2,3-d]pyrimidin-5-yl)-3-fluorophenyl)-4-(2,4-difluorophenyl)-3-methylimidazolidin-2-one]
> 7.00	CN1C(=O)N(c2ccc(-c3cn(C)c4ncnc(N)c34)c(F)c2)CC1c1cc(F)cc(Cl)c1 (single isomer, unassigned) [Example 51, 1-(4-(4-amino-7-methyl-7H-pyrrolo[2,3-d]pyrimidin-5-yl)-3-fluorophenyl)-4-(3-chloro-5-fluorophenyl)-3-methylimidazolidin-2-one]
